Test results reported in publication PMC2965201 (Bioorganic & medicinal chemistry, 2010).

Experiments:
Rce1p [1] = conditions: ref [8], [10]; cited from earlier work
yeast Rce1p = target: T1, yeast Rce1p (Saccharomyces cerevisiae, UniProt Q03530); assay: In vitro fluorescence-based Ca1a2X proteolysis assay; format: biochemical, S. cerevisiae
T1 sequence (Q03530 1-315): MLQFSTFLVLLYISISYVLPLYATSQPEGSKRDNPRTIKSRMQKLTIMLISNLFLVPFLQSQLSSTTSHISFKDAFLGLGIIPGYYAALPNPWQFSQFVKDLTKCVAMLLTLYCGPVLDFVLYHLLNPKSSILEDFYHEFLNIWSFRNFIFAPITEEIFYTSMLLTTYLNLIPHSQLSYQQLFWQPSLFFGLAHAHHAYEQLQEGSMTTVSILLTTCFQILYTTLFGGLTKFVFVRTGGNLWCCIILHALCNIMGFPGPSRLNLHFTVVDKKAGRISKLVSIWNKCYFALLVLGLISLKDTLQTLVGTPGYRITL

Rce1p [2] = assay: Large-scale Rce1p proteolysis with ESI-MS and MS-MS identification of product; format: biochemical, S. cerevisiae; conditions: 150 μM substrate, membranes 0.3 mg/mL, 100 mM Hepes, 5 mM MgCl2, pH 7.5, 30 °C, 3–3.5 h; ESI-MS [M+2H]2+
Rce1p [3] = conditions: previously reported, ref [9], [10], [13], cited from earlier work; for Vmax: no quencher

| Molecule | inhibition of Rce1p (Rce1p [1]) | Vmax (Rce1p [3]) | Km (Rce1p [3]) [µM] | also measured |
| --- | --- | --- | --- | --- |
| c1cnc2c(c1)ccc1cccnc12 [1,10-phenanthroline] | inhibited | – | – | – |
| [Zn] [zinc] | inhibited | – | – | – |
| Abz-KSKTKC(C5BP)K(Dnp)IM [Peptide 4] | – | – | – | Vmax/KM (yeast Rce1p; carbonate-washed yeast membranes, pH 7.5, 30 °C, n=2 (2), n=5 (4)): 4.8×10^−5 min/mg protein; binding affinity of 4 relative to 2 (fold higher, from KM) (yeast Rce1p; compared with 2): 3.4 fold; efficiency (Vmax/KM) of 4 relative to 2 (fold lower) (yeast Rce1p; compared with 2): approximately 18 fold; maximal rate of 4 relative to 2 (fold lower) (yeast Rce1p; compared with 2): approximately 60 fold; identity of product of Rce1p-catalyzed proteolysis (Rce1p [2]): consistent with the expected product 8 |
| Abz-KSKTKC(Fr)VIM | – | 600 nmol/h/mg Rce1p-containing membrane protein | 4 | – |
| KSKTKC(Fr)VIM | – | 600 nmol/h/mg Rce1p-containing membrane protein | 4 | – |
